Measured values: patent US11780826B2 (Amgen Inc., priority 2017, dated 2023)

system: Bovine cardiac myofibrils; experiment: In vitro model of dose-dependent myofibril ATPase modulation (AC1.4, pyruvate kinase/lactate dehydrogenase-coupled ATPase assay at pCa25); assay type: biochemical; details: concentration at which ATPase activity was 1.4-fold higher than the bottom of the dose curve, mean of a minimum of two independent tests
Procedure: In vitro Model of Dose-Dependent Myofibril ATPase Modulation: Dose responses were measured using a calcium-buffered, pyruvate kinase and lactate dehydrogenase-coupled ATPase assay containing the following reagents (concentrations expressed are final assay concentrations): Potassium PIPES (12 mM), MgCl2 (2 mM), ATP (1 mM), DTT (1 mM), BSA (0.1 mg/mi), NADH (0.5 mM), PEP (1.5 mM), pyruvate kinase (4 U/ml), lactate dehydrogenase (8 U/ml), and antifoam (90 ppm). The pH was adjusted to 6.80 at 22° C. by addition of potassium hydroxide.
Bovine cardiac myofibrils were obtained by homogenizing the appropriate tissue in the presence of detergent. Such treatment removes membranes and majority of soluble cytoplasmic proteins but leaves intact cardiac sarcomeric acto-myosin apparatus. Concentrations of myofibrils were adjusted to achieve the necessary rate of ATP hydrolysis (typically 0.25-1.0 mg/ml).
Assays were performed by first preparing a dilution series of test chemical entity, each with an assay mixture containing potassium Pipes, MgCl2, BSA, DTT, pyruvate kinase, lactate dehydrogenase, myofibrils, antifoam, EGTA, CaCl2, and water. The assay was started by adding an equal volume of solution containing potassium Pipes, MgCl2, BSA, DTT, ATP, NADH, PEP, antifoam, and water. ATP hydrolysis was monitored by absorbance at 340 nm. The resulting dose response curve was fit by the 4 parameter equation y=Bottom+((Top−Bottom)/(1+((EC50/X)^Hill))). […] AC1.4 values reported in the table below are mean values based on a minimum of two independent tests.

Row | Molecule | AC1.4
1 | 1-(((3S)-1-(((6R)-6-hydroxy-2-azaspiro[3.4]oct-2-yl)sulfonyl)-3-piperidinyl)carbonyl)-N-(4-(trifluoromethyl)benzyl)-D-prolinamide,1-(((3S)-1-(((6S)-6-hydroxy-2-azaspiro[3.4]oct-2-yl)sulfonyl)-3-piperidinyl)carbonyl)-N-(4-(trifluoromethyl)benzyl)-D-prolinamide [Example 750] | 7.331 µM
2 | N#CC1CN(S(=O)(=O)c2cccc(C(=O)N3c4ccccc4CC3C(=O)NCc3ccc(C(F)(F)F)cc3)c2)C1 (racemic) [Example 481, (2R)-1-((3-((3-cyano-1-azetidinyl)sulfonyl)phenyl)carbonyl)-N-(4-(trifluoromethyl)benzyl)-2,3-dihydro-1H-indole-2-carboxamide and (2S)-1-((3-((3-cyano-1-azetidinyl)sulfonyl)phenyl)carbonyl)-N-(4-(trifluoromethyl)benzyl)-2,3-dihydro-1H-indole-2-carboxamide] | 2.157 µM
3 | N#CC1CN(S(=O)(=O)N2CCC[C@H](C(=O)N3CCC[C@@H]3C(=O)N[C@@H](c3cc(F)c(Cl)cc3F)C3CNC3)C2)C1 (single isomer, unassigned) [Example 558] | 2.928 µM
4 | O=C(N[C@@H](c1cc(F)c(C(F)(F)F)cc1F)[C@H]1C[C@@H](O)C1)[C@H]1C[C@H]2C[C@H]2N1C(=O)c1ccnc(C(F)F)c1 (stereo in doubt) [Example 830, (1R,3R,5R)-N-((R)-(2,5-difluoro-4-(trifluoromethyl)phenyl)((1s,3S)-3-hydroxycyclobutyl)methyl)-2-(2-(difluoromethyl)isonicotinoyl)-2-azabicyclo[3.1.0]hexane-3-carboxamide] | 0.6694 µM
5 | N#CC1CN(S(=O)(=O)c2cccc(C(=O)N3CCC[C@@H]3C(=O)N[C@H](CC3CC3)c3ccc(C(F)(F)F)cc3)c2)C1 [Example 1, 1-(3-((3-cyano-1-azetidinyl)sulfonyl)benzoyl)-N-((1R)-2-cyclopropyl-1-(4-(trifluoromethyl)phenyl)ethyl)-D-prolinamide] | 0.01405 µM
6 | N#CC1CN(S(=O)(=O)N2CCC[C@H](C(=O)N3CCC[C@@H]3C(=O)N[C@@H](c3ccc(Cl)cc3F)C3CC3)C2)C1 [Example 2, N-((R)-(4-chloro-2-fluorophenyl)(cyclopropyl)methyl)-1-(((3S)-1-((3-cyano-1-azetidinyl)sulfonyl)-3-piperidinyl)carbonyl)-D-prolinamide] | 0.01475 µM
7 | CC[C@@H](NC(=O)[C@H]1CCCN1C(=O)c1cccc(S(=O)(=O)N2CC(C#N)C2)c1)c1ccc(C(F)(F)F)cc1 [Example 3, 1-(3-((3-cyano-1-azetidinyl)sulfonyl)benzoyl)-N-((1R)-1-(4-(trifluoromethyl)phenyl)propyl)-D-prolinamide] | 0.01635 µM
8 | CC[C@@H](NC(=O)[C@H]1CCCN1C(=O)[C@H]1CCCN(S(=O)(=O)N2CC(C#N)C2)C1)c1ccc(C(F)(F)F)cc1F [Example 4, 1-(((3S)-1-((3-cyano-1-azetidinyl)sulfonyl)-3-piperidinyl)carbonyl)-N-((1R)-1-(2-fluoro-4-(trifluoromethyl)phenyl)propyl)-D-prolinamide] | 0.01635 µM
9 | N#CC1CN(S(=O)(=O)c2cccc(C(=O)N3C[C@H]4C[C@H]4[C@@H]3C(=O)NCc3ccc(C(F)(F)F)cc3)c2)C1 [Example 5] | 0.01655 µM
10 | C[C@@H](NC(=O)[C@H]1CC(F)(F)CN1C(=O)c1cccc(S(=O)(=O)N2CC(C#N)C2)c1)c1ccc(C(F)(F)F)cc1 [Example 6, 1-((3-((3-cyano-1-azetidinyl)sulfonyl)phenyl)carbonyl)-4,4-difluoro-N-((1R)-1-(4-(trifluoromethyl)phenyl)ethyl)-D-prolinamide] | 0.0171 µM
11 | N#CC1CN(S(=O)(=O)c2cccc(C(=O)N3CCC[C@@H]3C(=O)N[C@H](CC(F)(F)F)c3ccc(C(F)(F)F)cc3)c2)C1 [Example 7, 1-(3-((3-cyano-1-azetidinyl)sulfonyl)benzoyl)-N-((1R)-3,3,3-trifluoro-1-(4-(trifluoromethyl)phenyl)propyl)-D-prolinamide] | 0.01905 µM
12 | N#CC1CN(S(=O)(=O)c2cccc(C(=O)N3CC(F)(F)C[C@@H]3C(=O)NCc3ccc(C(F)(F)F)cc3)c2)C1 [Example 8, 1-((3-((3-cyano-1-azetidinyl)sulfonyl)phenyl)carbonyl)-4,4-difluoro-N-(4-(trifluoromethyl)benzyl)-D-prolinamide] | 0.0198 µM
13 | CC(C)[C@@H](NC(=O)[C@H]1CCCN1C(=O)[C@H]1CCCN(S(=O)(=O)N2CC(C#N)C2)C1)c1ccc(C(F)(F)F)cc1F [Example 9, 1-(((3S)-1-((3-cyano-1-azetidinyl)sulfonyl)-3-piperidinyl)carbonyl)-N-((1R)-1-(2-fluoro-4-(trifluoromethyl)phenyl)-2-methylpropyl)-D-prolinamide] | 0.01995 µM
14 | CC(C)[C@@H](NC(=O)[C@H]1CCCN1C(=O)c1cccc(S(=O)(=O)N2CC(C#N)C2)c1)c1ccc(C(F)(F)F)cc1F [Example 10, 1-(3-((3-cyano-1-azetidinyl)sulfonyl)benzoyl)-N-((1R)-1-(2-fluoro-4-(trifluoromethyl)phenyl)-2-methylpropyl)-D-prolinamide] | 0.02115 µM
15 | N#CC1CN(S(=O)(=O)N2CCC[C@H](C(=O)N3CCC[C@@H]3C(=O)N[C@@H](c3ccc(C(F)(F)F)cc3)C3CC3)C2)C1 [Example 11, 1-(((3S)-1-((3-cyano-1-azetidinyl)sulfonyl)-3-piperidinyl)carbonyl)-N-((R)-cyclopropyl(4-(trifluoromethyl)phenyl)methyl)-D-prolinamide] | 0.0215 µM
16 | CC[C@@H](NC(=O)[C@H]1CCCN1C(=O)c1cccc(S(=O)(=O)N2CC(C#N)C2)c1)c1ccc(C(F)(F)F)cc1F [Example 12, 1-(3-((3-cyano-1-azetidinyl)sulfonyl)benzoyl)-N-((1R)-1-(2-fluoro-4-(trifluoromethyl)phenyl)propyl)-D-prolinamide] | 0.0216 µM
17 | N#CC1CN(S(=O)(=O)N2CCC[C@H](C(=O)N3CCC[C@@H]3C(=O)N[C@H](CC3CC3)c3ccc(C(F)(F)F)cc3)C2)C1 [Example 14, 1-(((3S)-1-((3-cyano-1-azetidinyl)sulfonyl)-3-piperidinyl)carbonyl)-N-((1R)-2-cyclopropyl-1-(4-(trifluoromethyl)phenyl)ethyl)-D-prolinamide] | 0.0227 µM
18 | N#CC1CN(S(=O)(=O)c2cccc(C(=O)N3CC4(CC4)C[C@@H]3C(=O)NCc3ccc(C(F)(F)F)cc3)c2)C1 [Example 15, (6R)-5-((3-((3-cyano-1-azetidinyl)sulfonyl)phenyl)carbonyl)-N-(4-(trifluoromethyl)benzyl)-5-azaspiro[2.4]heptane-6-carboxamide] | 0.02315 µM
19 | C[C@@H](NC(=O)[C@H]1CCCN1C(=O)c1cc(F)cc(S(=O)(=O)N2CC(C#N)C2)c1)c1ccc(C(F)(F)F)cc1 [Example 16, 1-((3-((3-cyano-1-azetidinyl)sulfonyl)-5-fluorophenyl)carbonyl)-N-((1R)-1-(4-(trifluoromethyl)phenyl)ethyl)-D-prolinamide] | 0.0238 µM
20 | CC[C@@H](NC(=O)[C@H]1CCCN1C(=O)[C@H]1CCCN(S(=O)(=O)N2CC(C#N)C2)C1)c1ccc(C(F)(F)F)cc1 [Example 17, 1-(((3S)-1-((3-cyano-1-azetidinyl)sulfonyl)-3-piperidinyl)carbonyl)-N-((1R)-1-(4-(trifluoromethyl)phenyl)propyl)-D-prolinamide] | 0.02445 µM
21 | C[C@@H](NC(=O)[C@H]1COCCN1C(=O)c1cccc(S(=O)(=O)N2CC(C#N)C2)c1)c1ccc(C(F)(F)F)cc1 [Example 19, (R)-4-(3-((3-cyanoazetidin-1-yl)sulfonyl)benzoyl)-N—((R)-1-(4-(trifluoromethyl)phenyl)ethyl)morpholine-3-carboxamide] | 0.02495 µM
22 | N#CC1CN(S(=O)(=O)N2CCC[C@H](C(=O)N3CCC[C@@H]3C(=O)NCc3cc(F)c(Cl)cc3F)C2)C1 [Example 20, N-(4-chloro-2,5-difluorobenzyl)-1-(((3S)-1-((3-cyano-1-azetidinyl)sulfonyl)-3-piperidinyl)carbonyl)-D-prolinamide] | 0.02545 µM
23 | N#CC1CN(S(=O)(=O)c2cccc(C(=O)N3CCC[C@@H]3C(=O)NCc3ccc(Cl)c(Cl)c3)c2)C1 [Example 22, 1-((3-((3-cyano-1-azetidinyl)sulfonyl)phenyl)carbonyl)-N-(3,4-dichlorobenzyl)-D-prolinamide] | 0.02715 µM
24 | CCNc1ccc(C)cc1C(=O)N1[C@@H](C(=O)N[C@@H](c2ccc(C(F)(F)F)cc2F)C2COC2)C[C@H]2C[C@H]21 [Example 23, (1R,3R,5R)-2-(2-(ethylamino)-5-methylbenzoyl)-N-((R)-(2-fluoro-4-(trifluoromethyl)phenyl)(3-oxetanyl)methyl)-2-azabicyclo[3.1.0]hexane-3-carboxamide] | 0.0287 µM
25 | N#CC1CN(S(=O)(=O)c2cccc(C(=O)N3CCC[C@@H]3C(=O)N[C@H](CO)c3ccc(Cl)c(F)c3)c2)C1 [Example 24, N-((1S)-1-(4-chloro-3-fluorophenyl)-2-hydroxyethyl)-1-(3-((3-cyano-1-azetidinyl)sulfonyl)benzoyl)-D-prolinamide] | 0.02875 µM
